Measurements taken from patent publication US9132129B2, “Antiviral compounds” (KATHOLIEKE UNIVERSITEIT LEUVEN, priority 2010, dated 2015).
pEC50: −log10 of the molar value.

Tests used:
Type in all cases: cell-based
in vitro = details: human
Description: The MT-2 based antiviral assay requires a separate cytotoxicity assessment of the compounds. This was performed using a 3 day MT-2 cytotoxicity assay as follows:
3 Day MT2 Cytotoxicity Assay (S8738E)
The assay is designed to test whether or not compounds have cytotoxic activity in MT2 cells by measuring the viability of these cells in the presence of compounds. The assay is carried out by adding MT2 assay plates containing serial dilutions of the compounds to be screened. After 3 days incubation, the viability of the cells remaining in the plates is assayed using the commercially available reagent CellTiter-Glo (Promega Ltd).

[1] = system: HIV-1 virus (NL4.3 strain); assay: MT-2 based antiviral assay (S8737E); details: Human immunodeficiency virus 1, 72 h; MT2 cells, 3 days, JC53BL β-Gal reporter readout
Source text: MT-2 Based Antiviral Assay (S8737E)
Much like the MT-4 based cytopathic effect assay, this assay is designed to determine the effects of small molecules on the replication of HIV-1 in the lymphobastoid cell line, MT2, and is able to detect the antiviral effect of compounds acting at any stage of the HIV-1 replication cycle. The assay, along with its associated cytotoxicity assay, was described in detail in 2005 in a paper by Cao et al (Antimicrobial Agents and Chemotherapy 2005; 49(9), p 3833-3841).
Briefly; MT2 cells are infected with the HIV-1 virus (NL4.3 strain) and transferred to assay plates containing serial dilutions of compounds to be tested. The assay plates are incubated for 3 days (MT2) to allow for several rounds of viral replication/infection to take place. At the end of this time, supernatant is transferred into new plates containing JC53BL cells.
JC53BL cells express CXCR4, CCR5 and CD4 receptors, and HIV-1-LTR-β-Gal. Under normal culture conditions undetectable levels of β-Galactosidase are expressed, but in the presence of HIV-1, the viral Tat protein is able to activate the HIV-1-LTR in the JC53BL cells resulting in the increased expression of the β-Gal enzyme. The expression can be measured using the ‘FluorAce β-Galactosidase reporter’ assay. The levels of β-Gal are directly proportional to the levels of Tat (up to a threshold) allowing virus quantification. Compounds that inhibit virus replication will give rise to a reduced signal and a dose-response curve for each compound can be generated. This is then used to determine the IC50 for each compound, a measure of the compound's potency, in a manner similar to the MT-4 based cytopathic effect assay.

[2] = MT4 cytotoxicity in mock-infected cells (MTT); details: human, mock-infected MT-4 cells
Description: A rapid and automated assay procedure was used for the in vitro evaluation of anti-HIV agents. An HTLV-1 transformed T4-cell line MT-4, which was previously shown to be highly susceptible to and permissive for HIV infection, served as the target cell line. Inhibition of the HIV-induced cytopathogenic effect was used as the end point. The viability of both HIV- and mock-infected cells was assessed spectrophotometrically via in situ reduction of 3-(4,5-dimethylthiazol-2-yl)-2,5-diphenyltetrazolium bromide (MTT). […] The percent protection achieved by the compound in HIV-infected cells was calculated by the following formula: […]
Examples of inhibition of cell proliferation by particular compounds of the invention can be found by looking at the respective CC50 values in the MT-4 cell line.
(§1) Cells: MT-4 cells (Miyoshi et al., 1982) were grown and maintained in RPMI 1640medium supplemented with 10% heat-inactivated fetal calf serum, 2 mM I-glutamine, 0.1% sodium bicarbonate, and 20æg of gentamicin per ml.

HIV-1(NL4.3) = assay: MT4 based cytopathic effect assay (anti-HIV activity); details: Human immunodeficiency virus 1, MT4; HIV-infected MT-4 cells, MTT, 50% protection
Description: MT4 based Cytopathic Effect Assay
A rapid and automated assay procedure was used for the in vitro evaluation of anti-HIV agents. An HTLV-1 transformed T4-cell line MT-4, which was previously shown to be highly susceptible to and permissive for HIV infection, served as the target cell line. Inhibition of the HIV-induced cytopathogenic effect was used as the end point. The viability of both HIV- and mock-infected cells was assessed spectrophotometrically via in situ reduction of 3-(4,5-dimethylthiazol-2-yl)-2,5-diphenyltetrazolium bromide (MTT). […] The percent protection achieved by the compound in HIV-infected cells was calculated by the following formula:
[formula] whereby (ODT)HIV is the optical density measured with a given concentration of the test compound in HIV-infected cells; (ODC)HIV is the optical density measured for the control untreated HIV-infected cells; (ODC)MOCK is the optical density measured for the control untreated mock-infected cells; all optical density values were determined at 540 nm. […] The ratio of CC50 to EC50 was defined as the selectivity index (SI).
as §1
Viruses: The HIV-1(NL4.3) strain (Adachi et al., 1986) is a molecular clone obtained from the National Institutes of Health (Bethesda, Md.).

Row | SMILES | CC50 at 3 days (in vitro) [µM] | pEC50 [1] | CC50 [2] [µM] | pEC50 (HIV-1(NL4.3))
1 | CCCC(C(=O)O)c1c(C)nc2cc3c(cc2c1-c1ccc(C)cc1)CCC3 (centres unmarked) [Cpd012, 2-(2-methyl-4-p-tolyl-7,8-dihydro-6H-cyclopenta[g]quinolin-3-yl)pentanoic acid] | > 20 | 5.77 | 82 | 6.28
2 | CCCC(C(=O)O)c1c(C)nc2cc3c(cc2c1-c1ccc(C)cc1)CCCC3 (centres unmarked) [Cpd001, 2-(-2-methyl-4-p-tolyl-6,7,8,9-tetrahydrobenzo[g]quinolin-3-yl)pentanoic acid] |  |  | 92 | 5.84
3 | CCCC(C(=O)O)c1c(C)nc2ccc3c(c2c1-c1ccc(C)cc1)CCCC3 (centres unmarked) [Cpd003, 2-(3-methyl-1-4-p-tolyl-7,8,9,10-tetrahydrobenzo[f]quinolin-2-yl)pentanoic acid] |  |  | 92 | 5.84
4 | CCCC(C(=O)O)c1c(C)nc2c3ccccc3nn2c1-c1ccc(C)cc1 (centres unmarked) [Cpd047, 2-(2-methyl-4-p-tolylpyrimido[1,2-b]indazol-3-yl)pentanoic acid] |  | < 4.70 | 200 | 
5 | CCCC(C(=O)O)c1c(C)nc2ccc3c(c2c1-c1ccc(C)cc1)CCC3 (centres unmarked) [Cpd023, 2-(3-methyl-1-p-tolyl-8,9-dihydro-7H-cyclopenta[f]quinolin-2-yl)pentanoic acid] |  |  | 114 | 5.35
6 | Cc1ccc(-c2c(C(OC(C)(C)C)C(=O)O)c(C)nc3cc4c(cc23)CCCC4)cc1 (centres unmarked) [Cpd002, tert-butoxy-(2-methyl-4-p-tolyl-6,7,8,9-tetrahydro-benzo[g]quinolin-3-yl)-acetic acid] | > 10 | 6.34 |  | 
